Assays:
[1] = Stability of Tc-99m labeled compound by radioTLC; assay type: physicochemical; conditions: for Eluent A / Eluent B: in % (unit assumed)
Description: (§1) After 2.0 mg of GP-104 was dissolved in 1.8 mL of water for injection and 0.2 mL of ethanol, the resulting solution was allowed to stand with a pH of about 5 at room temperature for 10 minutes when 20 μL of SnCl2 (15 mg/mL) and 2 mL of Tc-99m were added thereto, and the reaction was terminated by adjusting the pH to 7 using a NaOH solution. Stability up to 4 hours was confirmed by radioTLC under conditions of pH 5 and pH 7, respectively, and the results are summarized in the following Table 1. (TLC analysis conditions: iTLC was used, Eluent A: methyl ethyl ketone 100%, Eluent B: pyridine:acetic acid:purified water=3:5:15, and purity calculation: Eluent A−Eluent B)
as §1, with “ethanol, pH was adjusted to about 5 and” for “ethanol,”, “stand” for “stand with a pH of about 5”, “(15 mg/mL), 20 μL of cysteine (10” for “(15”, “Table 2.” for “Table 1.”
(§2) After 2.0 mg of GP-105 was dissolved in 1.8 mL of water for injection and 0.2 mL of ethanol, the pH was adjusted to about 5 and the resulting solution was allowed to stand at room temperature for 10 minutes when 20 μL of SnCl2 (15 mg/mL) and 2 mL of Tc-99m were added thereto, and the reaction was terminated by adjusting the pH to 7 using a NaOH solution. Stability until 4 hours under conditions of pH 5 and pH 7 was each confirmed by radioTLC. (TLC analysis conditions: iTLC was used, Eluent A: methyl ethyl ketone 100%, Eluent B: pyridine:acetic acid:purified water=3:5:15, and purity calculation: Eluent A−Eluent B)
as §2, with “ethanol,” for “ethanol, the”, “(15 mg/mL), 20 μL of cysteine (10” for “(15”

glycoprotein IIb/IIIa = target: T1, glycoprotein IIb/IIIa (Rattus norvegicus, UniProt A0A8I6GGN2+Q8R2H2); test: Glycoprotein IIb/IIIa specific uptake in thrombotic disease model, gamma counter / microSPECT; assay type: in vivo, rats
T1 construct: a disease model in which a thrombus was formed with glycoprotein IIb/IIIa overexpressed; from tissue; host or cells: in vivo rat carotid artery thrombus (ferric chloride model)
T1 sequence (A0A8I6GGN2 32-1037): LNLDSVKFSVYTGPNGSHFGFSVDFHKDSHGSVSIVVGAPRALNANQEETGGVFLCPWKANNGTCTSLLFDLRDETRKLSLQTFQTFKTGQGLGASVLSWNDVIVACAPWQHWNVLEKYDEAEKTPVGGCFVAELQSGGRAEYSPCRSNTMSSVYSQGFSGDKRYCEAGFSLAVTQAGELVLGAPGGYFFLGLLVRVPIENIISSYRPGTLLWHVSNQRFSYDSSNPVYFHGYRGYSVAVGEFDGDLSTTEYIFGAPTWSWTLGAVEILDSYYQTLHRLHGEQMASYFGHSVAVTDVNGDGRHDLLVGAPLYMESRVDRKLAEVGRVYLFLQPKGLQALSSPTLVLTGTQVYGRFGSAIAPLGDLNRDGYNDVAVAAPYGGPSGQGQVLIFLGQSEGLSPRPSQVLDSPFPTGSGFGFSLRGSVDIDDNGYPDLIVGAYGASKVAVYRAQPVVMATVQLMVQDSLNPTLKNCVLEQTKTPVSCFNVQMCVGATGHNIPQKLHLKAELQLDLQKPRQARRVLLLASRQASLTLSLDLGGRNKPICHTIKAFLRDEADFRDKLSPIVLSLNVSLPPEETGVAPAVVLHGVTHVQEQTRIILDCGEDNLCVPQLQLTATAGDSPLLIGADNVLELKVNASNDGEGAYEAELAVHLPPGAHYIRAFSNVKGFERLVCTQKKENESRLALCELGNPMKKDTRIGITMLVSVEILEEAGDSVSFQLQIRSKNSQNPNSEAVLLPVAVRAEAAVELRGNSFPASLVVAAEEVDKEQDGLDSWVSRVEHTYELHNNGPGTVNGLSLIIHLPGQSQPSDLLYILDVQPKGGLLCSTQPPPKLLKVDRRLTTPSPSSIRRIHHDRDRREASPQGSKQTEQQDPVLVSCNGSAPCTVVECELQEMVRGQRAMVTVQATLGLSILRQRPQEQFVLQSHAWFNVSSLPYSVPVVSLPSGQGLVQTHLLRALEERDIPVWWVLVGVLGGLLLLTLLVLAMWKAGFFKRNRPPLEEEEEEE
T1 sequence (Q8R2H2 26-787): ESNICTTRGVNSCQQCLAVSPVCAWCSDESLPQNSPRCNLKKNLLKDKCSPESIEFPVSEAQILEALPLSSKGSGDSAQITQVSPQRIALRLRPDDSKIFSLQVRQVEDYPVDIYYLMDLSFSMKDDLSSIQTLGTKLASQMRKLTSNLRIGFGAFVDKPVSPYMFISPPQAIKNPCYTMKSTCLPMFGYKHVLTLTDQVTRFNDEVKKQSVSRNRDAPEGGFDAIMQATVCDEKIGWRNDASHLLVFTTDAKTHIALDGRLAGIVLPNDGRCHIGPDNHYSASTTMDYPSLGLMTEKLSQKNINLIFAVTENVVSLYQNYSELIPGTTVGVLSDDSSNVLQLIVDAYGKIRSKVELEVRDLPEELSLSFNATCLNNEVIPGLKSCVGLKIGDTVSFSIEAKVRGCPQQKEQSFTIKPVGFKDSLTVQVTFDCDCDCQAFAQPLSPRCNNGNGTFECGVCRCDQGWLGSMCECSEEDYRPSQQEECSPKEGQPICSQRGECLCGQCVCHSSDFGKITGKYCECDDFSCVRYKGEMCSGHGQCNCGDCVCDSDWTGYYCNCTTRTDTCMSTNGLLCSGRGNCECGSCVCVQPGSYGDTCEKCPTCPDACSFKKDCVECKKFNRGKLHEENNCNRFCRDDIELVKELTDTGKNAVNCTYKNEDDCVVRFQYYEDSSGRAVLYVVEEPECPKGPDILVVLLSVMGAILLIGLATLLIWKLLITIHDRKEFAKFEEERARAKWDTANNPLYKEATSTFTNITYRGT
Description: After 6-week-old rats were anesthetized to make a thrombotic disease model, the carotid artery was secured by opening the skin on the carotid artery side. Then, a filter paper soaked with a 5% ferric chloride solution was exposed on the artery, and then washed three times or more with physiological saline, and the incised skin was sutured again to make a model. […]

[2] = Ex 3-1, no cysteine, pH 5, 0 hour
[3] = Ex 3-1, no cysteine, pH 5, 0.5 hours
[4] = Ex 3-1, no cysteine, pH 5, 1.0 hour
[5] = Ex 3-1, no cysteine, pH 5, 1.5 hours
[6] = Ex 3-1, no cysteine, pH 5, 2.0 hours
[7] = Ex 3-1, no cysteine, pH 5, 3.0 hours
[8] = Ex 3-1, no cysteine, pH 5, 4.0 hours
[9] = Ex 3-1, no cysteine, pH 7, 0 hour
[10] = Ex 3-1, no cysteine, pH 7, 0.5 hours
[11] = Ex 3-1, no cysteine, pH 7, 1.0 hour
[12] = Ex 3-1, no cysteine, pH 7, 1.5 hours
[13] = Ex 3-1, no cysteine, pH 7, 2.0 hours
[14] = Ex 3-1, no cysteine, pH 7, 3.0 hours
[15] = Ex 3-1, no cysteine, pH 7, 4.0 hours
[16] = Ex 3-2, cysteine, pH 5, 0.5 hours
[17] = Ex 3-2, cysteine, pH 5, 1.0 hour
[18] = Ex 3-2, cysteine, pH 5, 1.5 hours
[19] = Ex 3-2, cysteine, pH 5, 2.0 hours
[20] = Ex 3-2, cysteine, pH 5, 3.0 hours
[21] = Ex 3-2, cysteine, pH 5, 4.0 hours
[22] = Ex 3-2, cysteine, pH 7, 0.5 hours
[23] = Ex 3-2, cysteine, pH 7, 1.0 hour
[24] = Ex 3-2, cysteine, pH 7, 1.5 hours
[25] = Ex 3-2, cysteine, pH 7, 2.0 hours
[26] = Ex 3-2, cysteine, pH 7, 3.0 hours
[27] = Ex 3-2, cysteine, pH 7, 4.0 hours
[28] = gamma counter, sacrificed at the 2nd hour

## O=C(O)C[C@H](NC(=O)[C@@H]1CCCN(C(=O)CCC2CCNCC2)C1)c1cncc(OCCNC(=O)CN2CCN3CCN(CC(=O)O)CC(=O)[O][99Tc+]([O]C(=O)C3)[O]C(=O)C2)c1 [[Tc-99m]GP-104]
[1]; [2]
  Purity: 90.28%
  Eluent A: 95.7
  Eluent B: 5.42
[1]; [3]
  Purity: 91.36%
  Eluent A: 95.42
  Eluent B: 4.06
[1]; [4]
  Purity: 82.28%
  Eluent A: 98.43
  Eluent B: 16.15
[1]; [5]
  Purity: 72.79%
  Eluent A: 85.7
  Eluent B: 12.91
[1]; [6]
  Purity: 70.11%
  Eluent A: 91.79
  Eluent B: 21.68
[1]; [7]
  Purity: 67.71%
  Eluent A: 91.64
  Eluent B: 23.93
[1]; [8]
  Purity: 55.93%
  Eluent A: 80.48
  Eluent B: 24.55
[1]; [9]
  Purity: 90.59%
  Eluent A: 98.26
  Eluent B: 7.67
[1]; [10]
  Purity: 78.04%
  Eluent A: 92.82
  Eluent B: 14.78
[1]; [11]
  Purity: 78.31%
  Eluent A: 94.51
  Eluent B: 16.2
[1]; [12]
  Purity: 82.7%
  Eluent A: 96.11
  Eluent B: 13.41
[1]; [13]
  Purity: 76.61%
  Eluent A: 96.22
  Eluent B: 19.61
[1]; [14]
  Purity: 77.93%
  Eluent A: 87.58
  Eluent B: 9.65
[1]; [15]
  Purity: 54.14%
  Eluent A: 73.22
  Eluent B: 19.08
[1]; Ex 3-2, cysteine, pH 5, 0 hour
  Purity: 85.97%
  Eluent A: 89.51
  Eluent B: 3.54
[1]; [16]
  Purity: 87.89%
  Eluent A: 93.51
  Eluent B: 5.62
[1]; [17]
  Purity: 90.39%
  Eluent A: 93.61
  Eluent B: 3.22
[1]; [18]
  Purity: 93.47%
  Eluent A: 95.55
  Eluent B: 2.08
[1]; [19]
  Purity: 82.97%
  Eluent A: 91.17
  Eluent B: 8.2
[1]; [20]
  Purity: 86.06%
  Eluent A: 89.61
  Eluent B: 3.55
[1]; [21]
  Purity: 87.56%
  Eluent A: 91.99
  Eluent B: 4.43
[1]; Ex 3-2, cysteine, pH 7, 0 hour
  Purity: 96.94%
  Eluent A: 100
  Eluent B: 3.06
[1]; [22]
  Purity: 93.36%
  Eluent A: 98.3
  Eluent B: 4.94
[1]; [23]
  Purity: 96.35%
  Eluent A: 98.27
  Eluent B: 1.92
[1]; [24]
  Purity: 97.69%
  Eluent A: 100
  Eluent B: 2.31
[1]; [25]
  Purity: 97.12%
  Eluent A: 100
  Eluent B: 2.88
[1]; [26]
  Purity: 94.14%
  Eluent A: 100
  Eluent B: 5.86
[1]; [27]
  Purity: 95.76%
  Eluent A: 100
  Eluent B: 4.24
[1]; addition of cysteine, pH of 7, even after 4 hours (text to Table 2)
  Purity: ≥ 90%
Glycoprotein IIb/IIIa
  specific uptake in the disease model: high specific uptake
Glycoprotein IIb/IIIa; gamma counter, 2nd hour
  target to non target ratio: 2.0
Glycoprotein IIb/IIIa; [28]
  counts per minute (CPM)/g value, left artery: 1.3 CPM/g
  counts per minute (CPM)/g value, right artery: 2.5 CPM/g
Glycoprotein IIb/IIIa; microSPECT until 4 hours
  background radioactivity excretion: quick background radioactivity excretion effect
